Measurements taken from US9403866B2, “Compositions and methods for increasing telomerase activity” (Telomerase Activation Sciences, Inc., priority 2009, dated 2016).
Where two headings read alike, the source gives them in different places.

How the values were obtained:
Human brain pericytes = experiment: Tube formation of human brain pericytes on Matrigel; assay type: cell-based; settings: 0.5 μM in water, 24 hr then 6 hr on Matrigel, p<0.15
Experimental: Human brain pericytes (donor) at PD 10 were cultured for a total of 30 hr in 0.5 μM compound 7 dissolved in water. Telomerase activity and tube formation were analyzed.
Brain pericytes were first cultured for 24 hr in a T-75 flask in 0.5 μM compound 7, and then split onto a 24 well plate coated with Matrigel in order to promote tube formation (done in triplicate). 0.5 μM compound 7 was again included in the medium. After 6 hr the samples were fixed and branch points were counted using a microscope, 5 fields/well, with 3 wells/condition. Compound 7 treated pericytes had 1.9 times more branch points than the control (p<0.15).

[1] = Plasma levels and bioavailability in mice; assay type: in vivo, male C57BL/6 mice; settings: male, C57BL/6, mouse, read-out: Bioavailability % F
Experimental: The plasma levels of a compound following a single intravenous, oral, intra-peritoneal, or sub-cutaneous administration in male C57BL/6 mice was determined. Plasma samples were collected and used to determine the plasma concentration of the compound and metabolites. In addition tissue samples, including whisker samples, and peripheral blood mononuclear cells (PBMC) cells were collected for telomerase activity analysis.
(§1) C57BL16 mice were divided into treatment groups. The mice were provided ad libitum SLAC-MO1 #W080208 (Shanghai Laboratories Animal Center, Shanghai, China) throughout the in-life portion of the study with the exception of the overnight fasting period prior to oral dosing. Water was available ad libitum.
(§2) Body weights were taken on the day of dose administration. Dose volume was determined based on individual body weight taken on day of dosing.
Blood samples (approximately 300 μL) were collected via cardiac puncture or via retro-orbital puncture after anesthesia into tubes containing K2-EDTA anticoagulant and 1 mg/ml NaF at the various time points after dosing. Blood was stored on ice and then plasma separated via centrifugation (8000 rpm×6 minutes). The plasma was stored at […] until LC-MS/MS analysis.

[2] = Plasma levels and bioavailability in rats; settings: male, Sprague Dawley, rat, in vivo, po, 10 mg/kg
Experimental: (§3) The plasma levels of a compound following a single intravenous and oral administration in carotid artery-cannulated male Sprague Dawley rats was determined. Plasma samples were collected and used to determine the plasma concentration of the compound and metabolites. In addition tissue samples, including whisker samples and PBMC cells were collected for telomerase activity analysis.
as §1, with “Carotid artery-cannulated male Sprague Dawley rats” for “C57BL16 mice”, “groups according to Table 6.” for “groups.”, “rats” for “mice”, “# YY080208” for “#W080208”
The compounds were dissolved in 2% EtOH/98% water to yield a final concentration of 2.5 mg/ml and 1 mg/ml for both intravenous and oral administration, respectively. The concentration of each compound was confirmed by HPLC analysis.
as §2
(§4) Blood samples (approximately 250 μL) were collected via cannulae into tubes containing K2-EDTA anticoagulant and 1 mg/ml NaF at the various time points. Blood was stored on ice and then plasma separated via centrifugation (8000 rpm×6 minutes). The plasma was stored at […] until LC-MS/MS analysis.
Percentage of bioavailability was calculated.

telomerase [3] = molecular target: T1, telomerase (Homo sapiens, UniProt O14746); experiment: Keratinocyte cell/TRAP assay (HEKneo-P cells); assay type: cell-based; parameters: host or cells: HEKneo-P (pooled neonatal human epidermal keratinocytes); settings: for EC50: telomerase activation; for Activity in in vitro HEK assay: 24 hr, 0.01 to 10 μM, vs vehicle control at peak of full dose curve
Text: Harley et al., U.S. Pat. […] Harley et al., U.S. Pat. […] Non-treatment control (NT) was also included. […]

[4] = parameters: species or system male Beagle dogs; settings: male, Beagle, dog, in vivo, po, 10 mg/kg
Experimental: as §3, with “level” for “levels”, “in” for “in carotid artery-cannulated”, “Beagle dogs” for “Sprague Dawley rats”
as §1, with “Male Beagle dogs” for “C57BL16 mice”, “groups according to Table 5.” for “groups.”, “dogs” for “mice”, “#W080701” for “#W080208”
The compounds were dissolved in 2% EtOH/98% water […] to yield a final concentration of 2.5 mg/ml and 1 mg/ml for both intravenous and oral administration, respectively. The concentration of each compound was confirmed by HPLC analysis.
Doses were administered intravenously via the left femoral vein and then by oral dosing one week later. Body weights were taken on the day of dose administration. Dose volume was determined based on individual body weight taken on day of dosing.
as §4, with “right femoral vein” for “cannulae”, “appropriate” for “the various”

telomerase [5] = molecular target: T1, telomerase; parameters: host or cells: peripheral blood mononuclear cells; settings: reported by Franzese et al.; cited from earlier work
telomerase [6] = molecular target: T1, telomerase; experiment: In vitro model of fibrosis: TGFβ and bleomycin treated SAECs, gel TRAP assay; assay type: cell-based; settings: bleomycin 10 ug/ml, TGFβ 10 ng/ml
Experimental: In addition a portion of the cells were treated with bleomycin (10 ug/ml) and TGFβ (10 ng/ml). Forty-eight hours after the second treatment, cells were washed and lysed with M-Per lysis buffer. A gel TRAP assay was run to evaluate the telomerase activity in the cells.

T1 sequence (O14746 whole entry): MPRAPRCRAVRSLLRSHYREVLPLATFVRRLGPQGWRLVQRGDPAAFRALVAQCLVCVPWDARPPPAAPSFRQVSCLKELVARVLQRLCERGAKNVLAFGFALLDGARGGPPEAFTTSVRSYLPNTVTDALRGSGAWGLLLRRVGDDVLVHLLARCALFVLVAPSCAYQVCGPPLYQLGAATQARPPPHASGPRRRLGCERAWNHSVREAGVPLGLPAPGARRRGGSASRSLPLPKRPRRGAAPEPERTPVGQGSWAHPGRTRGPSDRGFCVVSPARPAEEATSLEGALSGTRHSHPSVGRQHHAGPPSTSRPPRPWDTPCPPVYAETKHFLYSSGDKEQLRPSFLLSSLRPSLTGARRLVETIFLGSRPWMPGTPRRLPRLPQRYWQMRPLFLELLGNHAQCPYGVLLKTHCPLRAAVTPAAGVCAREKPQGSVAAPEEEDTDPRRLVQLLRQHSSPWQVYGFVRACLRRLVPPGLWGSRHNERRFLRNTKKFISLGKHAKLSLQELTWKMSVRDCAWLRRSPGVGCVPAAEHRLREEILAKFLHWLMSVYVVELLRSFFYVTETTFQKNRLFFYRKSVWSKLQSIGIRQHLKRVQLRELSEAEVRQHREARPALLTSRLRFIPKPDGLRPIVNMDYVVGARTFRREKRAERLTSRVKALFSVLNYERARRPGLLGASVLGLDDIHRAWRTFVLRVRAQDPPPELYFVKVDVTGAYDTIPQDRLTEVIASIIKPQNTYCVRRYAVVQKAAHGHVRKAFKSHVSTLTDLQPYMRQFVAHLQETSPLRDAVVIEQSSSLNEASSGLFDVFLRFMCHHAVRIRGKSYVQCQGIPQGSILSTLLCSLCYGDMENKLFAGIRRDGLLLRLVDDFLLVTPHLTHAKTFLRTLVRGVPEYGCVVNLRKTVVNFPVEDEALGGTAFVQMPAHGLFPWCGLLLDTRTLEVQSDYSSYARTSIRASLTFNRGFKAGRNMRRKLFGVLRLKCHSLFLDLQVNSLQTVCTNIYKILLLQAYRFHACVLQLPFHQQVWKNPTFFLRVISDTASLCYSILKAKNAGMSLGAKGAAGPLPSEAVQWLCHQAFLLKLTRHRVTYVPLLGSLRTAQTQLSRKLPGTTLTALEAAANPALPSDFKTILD

## CC(C)C(N)C(=O)OC1CC2C3(C)CC(O)C(C4(C)CCC(C(C)(C)O)O4)C3(C)CCC23CC32CCC(OC(=O)C(N)C(C)C)C(C)(C)C12 (stereo not drawn) [Compound 7, 2-(L)-Amino-3-methyl-butyric acid 6α-(2-amino-3-methyl-butyryloxy)-16β-dihydroxy-17-[5-(1-hydroxy-1-methyl-ethyl)-2-methyl-tetrahydro-furan-2-yl]-4,4,13,14-tetramethyl-tetradecahydro-cyclopropa[9,10]cyclopenta[a]phenanthren-3β-yl ester]
Human brain pericytes
  branch points relative to the control: 1.9 times
[1]; PO, 10 mg/kg, 2% EtOH/98% water
  bioavailability: 25%
[1]; SC, 10 mg/kg, 2% EtOH/98% water
  bioavailability: 61%
[2]
  Bioavailability % F: 44%
Telomerase [3]
  EC50: 41 to 50 nM

## CC(C)C(N)C(=O)OC1CC2C3(C)CC(O)C(C4(C)CCC(C(C)(C)O)O4)C3(C)CCC23CC32CCC(O)C(C)(C)C12 (centres unmarked) [Compound 12]
[1]; IP, 5 mg/kg, 2% EtOH/98% water
  bioavailability: 42%
[1]; PO, 5 mg/kg, 2% EtOH/98% water
  bioavailability: 8%
[2]
  Bioavailability % F: 27%
Telomerase [3]
  EC50: 28 to 32 nM

## CCC(C)C(N)C(=O)OC1CCC23CC24CCC2(C)C(C5(C)CCC(C(C)(C)O)O5)C(O)CC2(C)C4CC(O)C3C1(C)C (centres unmarked) [Compound 14]
[1]; PO, 10 mg/kg, 5% PEG400/5% solutol HS-15/90% water
  bioavailability: 42%
[2]
  Bioavailability % F: 93%
[4]
  Bioavailability % F: 55%
Telomerase [3]
  EC50: 9 to 21 nM

## CC(C)[C@H](N)C(=O)O[C@H]1CC2C3(CC[C@]4(C)[C@@H]([C@@]5(C)CC[C@@H](C(C)(C)O)O5)[C@@H](O)C[C@@]24C)C[C@@]32CCC(=O)C(C)(C)[C@H]12.Cl (stereo partly drawn) [Compound 30, 2-(L)-Amino-3-methyl butyric acid 16β-hydroxy-17-[5-(1-hydroxy-1-methyl-ethyl)-2-methyl-tetrahydro-furan-2-yl]-4,4,13,14-tetramethyl-3-oxo-tetradecahydro-cyclopropa[9,10]cyclopenta[a]phenanthren-6α-yl ester]
Telomerase [3]
  Max fold increase of activity: 3.5 fold
  Activity in in vitro HEK assay: + (telomerase activation is 2 fold or more in comparison with vehicle control at the peak of the full dose curve.)

## CCC(C)[C@H](N)C(=O)OC1CC2C3(C)CC(O)C(C4(C)CCC(C(C)(C)O)O4)C3(C)CCC23CC32CCC(OC(=O)[C@@H](N)C(C)CC)C(C)(C)C12 (some centres unmarked) [Compound 32]
Telomerase [3]
  Max fold increase of activity: 3 fold
  concentration at Max fold increase of activity: 0.37 to 1.1 µM
  Activity in in vitro HEK assay: + (telomerase activation is 2 fold or more in comparison with vehicle control at the peak of the full dose curve.)

## CC(C)[C@H](N)C(=O)OC1CC2(C)C3CC(O)C4C(C)(C)C(O)CCC45CC35CCC2(C)C1C1(C)CCC(C(C)(C)O)O1 (stereo partly drawn) [Compound 36, 2-(L)-Amino-3-methyl-butyric acid 3β,6α-dihydroxy-16β-hydroxy-17-[5-(1-hydroxy-1-methyl-ethyl)-2-methyl-tetrahydro-furan-2-yl]-4,4,13,14-tetramethyl-tetradecahydro-cyclopropa[9,10]cyclopenta[a]phenanthren-16β-yl ester]
Telomerase [3]
  Max fold increase of activity: 3.0 fold
  concentration at Max fold increase of activity: 0.01 to 0.12 µM
  Activity in in vitro HEK assay: + (telomerase activation is 2 fold or more in comparison with vehicle control at the peak of the full dose curve.)

## CC(C)(C)NC(=O)[C@@H]1C[C@@H]2CCCC[C@@H]2CN1C[C@@H](O)[C@H](Cc1ccccc1)NC(=O)[C@H](CC(N)=O)NC(=O)c1ccc2ccccc2n1 [Saquinavir]
Telomerase [5]
  telomerase activity in peripheral blood mononuclear cells: increased telomerase activity

## bleomycin
Telomerase [6]
  effect on SAEC telomerase activity: suppressed SAEC telomerase activity
